Source: patent EP2396329B1, “COMPOUNDS FOR THE TREATMENT OF HEPATITIS C” (priority 2009, dated 2010)
Where two headings read alike, the source gives them in different places.

Tests used:
HCV replicon = HCV replicon assay (FRET or luciferase readout); format: cell-based; settings: Hepatitis C virus
Description: FRET Assay Preparation. To perform the HCV FRET screening assay, 96-well cell culture plates were used. The FRET peptide (Anaspec, Inc.) (Taliani et al., Anal. Biochem. 1996, 240, 60-67) contains a fluorescence donor, EDANS, near one end of the peptide and an acceptor, DABCYL, near the other end. The fluorescence of the peptide is quenched by […] resonance energy transfer (RET) between the donor and the acceptor, but as the NS3 protease cleaves the peptide the products are released from RET quenching and the fluorescence of the donor becomes apparent. The assay reagent was made as follows: 5X cell Luciferase cell culture lysis reagent from Promega (#E153A) diluted to 1X with dH2O, NaCl added to 150 mM final, the FRET peptide diluted to 20 µM final from a 2 mM stock.
To prepare plates, HCV replicon cells, with or without a Renilla luciferase reporter gene, were trypsinized and placed into each well of a 96-well plate with titrated test compounds added in columns 3 through 12; columns 1 and 2 contained a control compound (HCV protease inhibitor), and the bottom row contained cells without compound. The plates were then placed in a CO2 incubator at 37 °C.
Assays. Subsequent to addition of the test compounds described above (FRET Assay Preparation), at various times the plate was removed and Alamar blue solution (Trek Diagnostics, #00-100) was added per well as a measure of cellular toxicity. After reading in a Cytoflour 4000 instrument (PE Biosystems), plates were rinsed with PBS and then used for FRET assay by the addition of 30 ul of the FRET peptide assay reagent described above (FRET Assay Preparation) per well. The plate was then placed into the Cytoflour 4000 instrument which had been set to 340 excite/490 emission, automatic mode for 20 cycles and the plate read in a kinetic mode. Typically, the signal to noise using an endpoint analysis after the reads was at least three-fold. Alternatively, after Alamar blue reading, plates were rinsed with PBS, 50 ul of DMEM (high glucose) without phenol red was added and plates were then used for luciferase assay using the Promega Dual-Glo Luciferase Assay System.
Compound analysis was determined by quantification of the relative HCV replicon inhibition and the relative cytotoxicity values. To calculate cytoxicity values, the average Alamar Blue fluorescence signals from the control wells were set as 100% non-toxic. The individual signals in each of the compound test wells were then divided by the average control signal and multiplied by 100% to determine […]. To calculate the HCV replicon inhibition values, an average background value was obtained from the two wells containing the highest amount of HCV protease inhibitor at the end of the assay period. These numbers were similar to those obtained from naïve Huh-7 cells.
The background numbers were then subtracted from the average signal obtained from the control wells and this number was used as 100% activity. The individual signals in each of the compound test wells were then divided by the averaged control values after background subtraction and multiplied by 100% to determine percent activity. EC50 values for a protease inhibitor titration were calculated as the concentration which caused a 50% reduction in FRET or luciferase activity. The two numbers generated for the compound plate, percent cytoxicity and percent activity were used to determine compounds of interest for further analysis.

HCV NS5B = molecular target: T1, HCV NS5B (Hepatitis C virus genotype 1b, UniProt Q9WMX2); assay: HCV NS5B RdRp enzyme assay (standard or modified); format: biochemical
T1 construct: The protein was expressed with an 18 amino acid C-terminal truncation to enhance the solubility; made in house; host or cells: E. coli BL21(DE3)
T1 sequence (Q9WMX2 2420-2992): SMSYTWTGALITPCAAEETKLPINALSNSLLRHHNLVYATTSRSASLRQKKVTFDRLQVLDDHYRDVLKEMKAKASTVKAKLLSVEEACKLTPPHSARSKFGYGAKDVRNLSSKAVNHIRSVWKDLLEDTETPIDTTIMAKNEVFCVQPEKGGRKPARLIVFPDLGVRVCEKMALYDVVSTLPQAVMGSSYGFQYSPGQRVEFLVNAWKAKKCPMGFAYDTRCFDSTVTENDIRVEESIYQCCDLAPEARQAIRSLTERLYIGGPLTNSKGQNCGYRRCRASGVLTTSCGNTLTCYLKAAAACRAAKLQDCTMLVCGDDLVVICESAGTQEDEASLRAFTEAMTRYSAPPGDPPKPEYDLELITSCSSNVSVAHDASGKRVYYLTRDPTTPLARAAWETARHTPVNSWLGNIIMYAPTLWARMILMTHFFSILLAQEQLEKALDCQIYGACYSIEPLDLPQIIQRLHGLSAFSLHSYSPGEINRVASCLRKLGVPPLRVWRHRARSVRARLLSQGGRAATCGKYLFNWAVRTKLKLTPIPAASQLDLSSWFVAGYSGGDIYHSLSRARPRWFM
Protocol: HCV NS5B RdRp cloning, expression, and purification. The cDNA encoding the NS5B protein of HCV, genotype 1b, was cloned into the pET21a expression vector. The protein was expressed with an 18 amino acid C-terminal truncation to enhance the solubility. The E. coli competent cell line BL21(DE3) was used for expression of the protein. Cultures were grown at 37 °C for ~ 4 hours until the cultures reached an optical density of 2.0 at 600 nm. The cultures were cooled to 20 °C and induced with I mM IPTG. Fresh ampicillin was added to a final concentration of 50 µg/ml and the cells were grown overnight at 20 °C.
Cell pellets (3L) were lysed for purification to yield 15-24 mgs of purified NS5B. The lysis buffer consisted of 20 mM Tris-HCl, pH 7.4, 500 mM NaCl, 0.5% triton X-100, 1 mM DTT, 1mM EDTA, 20% glycerol, 0.5 mg/ml lysozyme, 10 mM MgCl2, 15 ug/ml deoxyribonuclease I, and Complete TM protease inhibitor tablets (Roche). After addition of the lysis buffer, frozen cell pellets were resuspended using a tissue homogenizer. To reduce the viscosity of the sample, aliquots of the lysate were sonicated on ice using a microtip attached to a Branson sonicator. The sonicated lysate was centrifuged at 100,000 x g for 1hr at 4 °C and filtered through a 0.2 µm filter unit (Corning).
The protein was purified using three sequential chromatography steps: Heparin sepharose CL-6B, polyU sepharose 4B, and Hitrap SP sepharose (Pharmacia). The chromatography buffers were identical to the lysis buffer but contained no lysozyme, deoxyribonuclease I, MgCl2 or protease inhibitor and the NaCl concentration of the buffer was adjusted according to the requirements for charging the protein onto the column. Each column was eluted with a NaCl gradient which varied in length from 5-50 column volumes depending on the column type. After the final chromatography step, the resulting purity of the enzyme is >90% based on SDS-PAGE analysis. The enzyme was aliquoted and stored at -80 °C.
Standard HCV NS5B RdRp enzyme assay. HCV RdRp genotype 1b assays were run in a final volume of 60 µl in 96 well plates (Costar 3912). The assay buffer is composed of 20 mM Hepes, pH 7.5, 2.5 mM KCI, 2.5 mM MgCl2, 1 mM DTT, 1.6 U RNAse inhibitor (Promega N2515), 0.1 mg/ml BSA (Promega R3961), and 2 % glycerol. All compounds were serially diluted (3-fold) in DMSO and diluted further in water such that the final concentration of DMSO in the assay was 2%. HCV RdRp genotype Ib enzyme was used at a final concentration of 28 nM. A polyA template was used at.6 nM, and a biotinylated oligo-dT12 primer was used at 180 nM final concentration. Template was obtained commercially (Amersham 27-4110). Biotinylated primer was prepared by Sigma Genosys. 3H-UTP was used at 0.6 µCi (0.29 µM total UTP). Reactions were initiated by the addition of enzyme, incubated at 30 °C for 60 min, and stopped by adding 25 µl of 50 mM EDTA containing SPA beads (4 µg/µl, Amersham RPNQ 0007). Plates were read on a Packard Top Count NXT after > 1hr incubation at room temperature.
Modified HCV NS5B RdRp enzyme assay. A modified enzyme assay was performed essentially as described for the standard enzyme assay except for the following: The biotinylated oligo dT12 primer was precaptured on streptavidin-coated SPA beads by mixing primer and beads in assay buffer and incubating at room temperature for one hour. Unbound primer was removed after centrifugation. The primer-bound beads were resuspended in 20 mM Hepes buffer, pH 7.5 and used in the assay at final concentrations of 20 nM primer and 0.67 µg/µl beads. Order of addition in the assay: enzyme (14 nM) was added to diluted compound followed by the addition of a mixture of template (0.2 nM), 3H-UTP (0.6 µCi, 0.29 µM), and primer-bound beads, to initiate the reaction; concentrations given are final. Reactions were allowed to proceed for 4 hours at 30° C.
IC50 values for compounds were determined using seven different [I]. […]

[1] = HCV replicon cells, FRET or luciferase activity, read-out: EC50
[2] = HCV NS5B RdRp enzyme, genotype 1b, read-out: IC50

| SMILES | EC50 (HCV replicon; [1]) | IC50 (HCV NS5B; [2]) | EC50 (HCV replicon) | IC50 (HCV NS5B) |
| --- | --- | --- | --- | --- |
| CCOC(=O)c1c(C)nn(CC)c1C1=Cc2cc(OC)ccc2-c2c(C3CCCCC3)c3ccc(C(=O)O)cc3n2C1 | > 500 nM | 1 to 500 nM | – | – |
| COc1ccc2c(c1)C=C(c1ncn(C(C)C)c1C(=O)N1C[C@@H](C)O[C@@H](C)C1)Cn1c-2c(C2CCCCC2)c2ccc(C(=O)NS(=O)(=O)N(C)C)cc21 | 1 to 500 nM | 1 to 500 nM | – | – |
| CCn1nc(C)c(C(=O)N2C[C@@H](C)O[C@@H](C)C2)c1C1=Cc2cc(OC)ccc2-c2c(C3CCCCC3)c3ccc(C(=O)NS(=O)(=O)C4CC4)cc3n2C1 | 1 to 500 nM | 1 to 500 nM | – | – |
| COC[C@@H]1CN(C(=O)c2c(C)nn(C)c2C2=Cc3cc(OC)ccc3-c3c(C4CCCCC4)c4ccc(C(=O)NS(=O)(=O)C(C)C)cc4n3C2)CCO1 | 1 to 500 nM | 1 to 500 nM | – | – |
| CCn1nc(C)c(C2=Cc3cc(OC)ccc3-c3c(C4CCCCC4)c4ccc(C(=O)NS(=O)(=O)C(C)C)cc4n3C2)c1C(=O)N1CCOCC1 | 1 to 500 nM | 1 to 500 nM | – | – |
| CCn1nc(C)c(C(=O)N2C3CCC2CN(C)C3)c1C1=Cc2cc(OC)ccc2-c2c(C3CCCCC3)c3ccc(C(=O)NS(=O)(=O)C(C)C)cc3n2C1 | – | – | 1 to 500 nM | 1 to 500 nM |
| COc1ccc2c(c1)C=C(c1c(C(=O)N3C[C@@H](C)N(C)[C@@H](C)C3)nnn1C(C)C)Cn1c-2c(C2CCCCC2)c2ccc(C(=O)NS(=O)(=O)C(C)C)cc21 | 1 to 500 nM | 1 to 500 nM | – | – |
| COc1ccc2c(c1)C=C(c1c(C(=O)N3CCN(C)CC3)c(C)nn1C)Cn1c-2c(C2CCCCC2)c2ccc(C(=O)NS(=O)(=O)C(C)C)cc21 | 1 to 500 nM | 1 to 500 nM | – | – |
| CCn1nc(C)c(C(=O)N2C3CCCC2COC3)c1C1=Cc2cc(OC)ccc2-c2c(C3CCCCC3)c3ccc(C(=O)NS(=O)(=O)C(C)C)cc3n2C1 | – | – | 1 to 500 nM | 1 to 500 nM |
| COc1ccc2c(c1)C=C(c1c(C(=O)N3C[C@@H](C)N(C)[C@@H](C)C3)nnn1C(C)C)Cn1c-2c(C2CCCCC2)c2ccc(C(=O)NS(=O)(=O)N(C)C)cc21 | 1 to 500 nM | 1 to 500 nM | – | – |
| COc1ccc2c(c1)C=C(c1c(C(=O)N3CC4CC3CO4)cnn1C(C)C)Cn1c-2c(C2CCCCC2)c2ccc(C(=O)NS(=O)(=O)C(C)C)cc21 (stereo not shown) | – | 1 to 500 nM | 1 to 500 nM | – |
| COc1ccc2c(c1)C=C(c1c(C(=O)N3CCN(C)CC(F)(F)C3)nnn1C(C)C)Cn1c-2c(C2CCCCC2)c2ccc(C(=O)NS(=O)(=O)N(C)C)cc21 | 1 to 500 nM | 1 to 500 nM | – | – |
| COc1ccc2c(c1)C=C(c1c(C(=O)N3C4COCC3COC4)cnn1CC(F)(F)F)Cn1c-2c(C2CCCCC2)c2ccc(C(=O)NS(=O)(=O)C(C)C)cc21 | – | – | 1 to 500 nM | 1 to 500 nM |
| CCn1nc(C)c(C(=O)N2CCOCC2)c1C1=Cc2cc(OC)ccc2-c2c(C3CCCCC3)c3ccc(C(=O)NS(=O)(=O)C(C)C)cc3n2C1 | 1 to 500 nM | 1 to 500 nM | – | – |
| CCOC(=O)c1cnn(CC)c1C1=Cc2cc(OC)ccc2-c2c(C3CCCCC3)c3ccc(C(=O)NS(=O)(=O)C(C)C)cc3n2C1 | > 500 nM | 1 to 500 nM | – | – |
| CCn1ncc(C(=O)N2C[C@@H](C)N(C)[C@@H](C)C2)c1C1=Cc2cc(OC)ccc2-c2c(C3CCCCC3)c3ccc(C(=O)NS(=O)(=O)C(C)C)cc3n2C1 | 1 to 500 nM | 1 to 500 nM | – | – |
| COc1ccc2c(c1)C=C(c1c(C(=O)N3C[C@@H](C)O[C@@H](C)C3)nnn1C(C)C)Cn1c-2c(C2CCCCC2)c2ccc(C(=O)NS(=O)(=O)N(C)C)cc21 | 1 to 500 nM | 1 to 500 nM | – | – |
| CCOC(=O)c1cnn(CC)c1C1=Cc2cc(OC)ccc2-c2c(C3CCCCC3)c3ccc(C(=O)O)cc3n2C1 | > 500 nM | 1 to 500 nM | – | – |
| CCOC(=O)c1cnn(CC)c1C1=Cc2cc(OC)ccc2-c2c(C3CCCCC3)c3ccc(C(=O)OC(C)(C)C)cc3n2C1 | > 500 nM | > 500 nM | – | – |
| COc1ccc2c(c1)C=C(c1c(C(=O)N3C4CCC3CN(C)C4)nnn1C(C)C)Cn1c-2c(C2CCCCC2)c2ccc(C(=O)NS(=O)(=O)N(C)C)cc21 | – | – | 1 to 500 nM | 1 to 500 nM |
| COc1ccc2c(c1)C=C(c1c(C(=O)N3CCN(C)CC3)c(C(C)C)nn1C)Cn1c-2c(C2CCCCC2)c2ccc(C(=O)NS(=O)(=O)C(C)C)cc21 | 1 to 500 nM | 1 to 500 nM | – | – |
| COc1ccc2c(c1)C=C(c1c(C(=O)N3C4CCCC3COC4)cnn1C(C)C)Cn1c-2c(C2CCCCC2)c2ccc(C(=O)NS(=O)(=O)C(C)C)cc21 | – | – | 1 to 500 nM | 1 to 500 nM |
| COc1ccc2c(c1)C=C(c1c(C(=O)N3C[C@@H](C)N(C)[C@@H](C)C3)c(C(C)C)nn1C)Cn1c-2c(C2CCCCC2)c2ccc(C(=O)NS(=O)(=O)C(C)C)cc21 | 1 to 500 nM | 1 to 500 nM | – | – |
| CCn1nc(C)c(C2=Cc3cc(OC)ccc3-c3c(C4CCCCC4)c4ccc(C(=O)NS(=O)(=O)C(C)C)cc4n3C2)c1C(=O)N1C[C@@H](C)N(C)[C@@H](C)C1 | 1 to 500 nM | 1 to 500 nM | – | – |
| COc1ccc2c(c1)C=C(c1c(C(=O)N3C[C@@H](C)O[C@@H](C)C3)ncn1C(C)C)Cn1c-2c(C2CCCCC2)c2ccc(C(=O)NS(=O)(=O)C(C)C)cc21 | 1 to 500 nM | 1 to 500 nM | – | – |
| CCOC(=O)c1c(C)nn(CC)c1C1=Cc2cc(OC)ccc2-c2c(C3CCCCC3)c3ccc(C(=O)NS(=O)(=O)C(C)C)cc3n2C1 | > 500 nM | 1 to 500 nM | – | – |
